Reference: patent US8603999B2, “Amphiphile prodrugs” (Commonwealth Scientific and Industrial Research Organisation, priority 2008, dated 2013)

Assays:
[1] = test system: 4T1 cells (mouse breast cancer cells); test: 4T1 mouse breast tumour in BALB/c mice, oral daily dosing for 21 days (Example 6); type: in vivo
Method: 90 female BALB/c were injected with 5×10^4 4T1 cells (mouse breast cancer cells) in the second mammary fat pad on the right hand side. The tumour was allowed to form for 6 days prior to drug administration. On day 6, tumours were palpable in most of the mice. […] Mice were placed into groups of 6, and 15 different treatments were administered orally on a daily basis for 21 days.
The length and breadth of the tumours were measured and recorded on day 1, 4, 7, 14, and 21 of the drug administration. On Day 22, mice were euthanized. Blood was collected via cardiac puncture, followed by removal of the tumour, liver, spleen and kidney for histological analysis. Lungs were injected with indium ink prior to removal to allow for quantification of the number of lung metastasis in each animal.

[2] = test system: Carboxylesterase from porcine liver; test: Hydrolysis of prodrugs by porcine liver carboxylesterase (CES), LC/MS; settings: for SA relative to 5-FCPal: CES hydrolysis
Method: High purity Capecitabine (as solid crystals) was purchased from Xingcheng Chemphar Co., Ltd, P.R.China. […] Millipore water was used to prepare the prodrugs solutions with appropriate concentrations, while phosphate buffered saline (pH 7.4, PBS) was used in the preparation of different concentrations of enzyme.
Stock solution of Capecitabine was prepared by dissolving pure white Capecitabine into warm water. 1 mg/mL of Capecitabine solution was then further obtained by diluting the stock solution with milli-Q water. […] Prior to the experiments, prodrug particles were incubated at 37° C. for at least two weeks to achieve the equilibrium state of certain phases.
Stock solution of 10 mg/mL carboxylesterase solution was prepared by weighting 10 mg of powder enzyme in 1 mL of PBS buffer and shaking gently by hand. The concentration of the enzyme solution was adjusted to 1 mg/mL and 0.01 mg/mL by dilution of the stock solution. These solutions were used for the enzymatic hydrolysis of the prodrugs and Capecitabine respectively. […]
To measure the rate of the enzymatic reaction precisely, the starting substrate and the enzyme solution were mixed for a defined time by rapidly mixing together the two stock solutions and shaking. The time at which enzyme solution was added was taken as time zero for the hydrolysis reaction. The mixture was maintained at 37° C. throughout the experiment. The concentration of the hydrolysis product was then measured at various times using LC/MS (Finnigan LCQ Series, Thermo Scientific, USA). The time at which the sample was injected into the LC column was taken to be the reaction time for such sample. The hydrolysis progress curve showing the decrease in the concentration of original substrate was subsequently plotted.
The concentrations of prodrugs were determined using Thermo Finnigan LC/MS equipped with an atmospheric pressure chemical ionization (APCI) probe in positive ion mode. 10 μL of sample withdrawn from the reaction solution was injected directly into a Platinum EPS C18 100 Å 5u LC column with the length of 150 mm and internal diameter of 4.6 mm (Alltech, Australia). A mixture of 30% LCMS grade water and 70% Methanol was employed as mobile phase with the flow rate of 1 ml/min. The sample after the column separation was eluted to APCI source (MS full positive scan) to determine the molecular weight of the substrates. The vaporizer temperature of the APCI probe was set at 450° C. and the capillary temperature was operated at 200° C. The sample temperature was well maintained at 37° C. during the entire measurement by incubating the sample in the temperature controlled auto-sampler. Data were acquired and processed with Xcalibur Quan chromatography software.
The decreased concentration of substrate and the increased hydrolysis product 5′-dFCyd were detected based on the different retention time on chromatogram and m/z value in the MS positive scan. […] The decreased/increased ratio of reactant/5′dFCyd was determined by comparing the integration areas of the corresponding peaks.
The enzyme hydrolysis reaction was plotted as the logarithm of the ratio of original prodrug concentration to the decreased concentration of prodrug at a certain incubation time as a function of reaction time (Ln [S]0/[S] vs T).
In order to compare the enzymatic activity for each individual substrate to CES, we calculate a global reaction rate expressed as a specific activity (SA) (μmol/min/mg enzyme): SA=Δ[S]/(Δt·[CCES])
Here, as is common when discussing the SA, [CCES] is the enzyme concentration in mg/ml, Δ[S] is the substrate concentration change in μmol/ml during Δt time.

4T1 tumour = test: Second 4T1 tumour study, daily dosing for 17 days (Example 7)
Description: Also, the dosage of both compounds was increased to 1.5 mmol for each treatment.

[3] = Particle size distribution of dispersions by dynamic light scattering; type: physicochemical; settings: for mean (average) particle size / particle size distribution: DLS at 25° C., 5-FCPhy and 5-FCOle after membrane extrusion, 5-FCPal solid lipid particles; for Average Particle size: dispersions used in the hydrolysis study, physiological temperature
Method: BASF) equivalent to 10% (w/w) of neat amphiphile and absolute ethanol were weighed in a sample vial. […] These crude dispersions were then passed through a series of PC membranes from the size range from 1 um to 100 nm to obtain a more uniform size distribution for the particles. The equipment used for size control is a mini-extruder (Avanti Polar Lipids, USA). […] The final concentration of colloidosomes were determined by ultra performance liquid chromatography (UPLC) and then diluted to 1 mg/mL for use in the enzyme hydrolysis study The particle size distribution and morphology of the above suspensions were determined using the method as described herein by using zetasizer and cryo-TEM characterisation methods. Solid lipid particles of prodrug 5-FCPal were prepared using mechanical methods. […] The melted prodrug and poloxamer mixture was then transferred to 40 mL of pre-warmed water upon vigorous vortexing. The mixture was then sheared with a rough homogenizer (Ultra Turrax®, T18 Basic, IKA® Werke GmbH & Co. KG, Germany) at 14,000 rpm for 10 min. The resultant dispersion was further transferred to the ultrasonic benchtop cleaner for a few hours of ultra sonication. […] Determination of the particle size distribution of the colloidosome and solid lipid particle dispersions were carried out using a Zetasizer (nano zs, Malvern, England) equipped with a He—Ne Laser (4 mw, 633 nm) and an avalanche photodiode detector. […] […] The size distribution was recorded by intensity.

[4] = Lyotropic phase behaviour: water penetration scans, SAXS and XRD; type: physicochemical; settings: for lyotropic phase behaviour in water penetration scans: concentration gradient from neat amphiphile to pure water, heated from room temperature; for Lyotropic phase behaviour: particle form in water at physiological temperature; for d-spacing: Lc
Description: Lyotropic mesophase behaviour was studied using water penetration experiments. Neat amphiphile was placed on a glass slide, melted and cooled to facilitate sample homogenization and then covered with a glass cover slip. A few drops of Milli-Q water were then introduced to the edge of the cover slip which was drawn in by capillary action resulting in a concentration gradient from pure amphiphile in the centre to pure water around the edges of the cover slip. The generated mesophases were identified by their characteristic birefringent textures. Samples were then heated at 2° C./min from room temperature to ˜99° C. using an FP90 Linkam hotstage (Linkam Scientific Instruments, England). Thermotropic phase behaviour was also examined in the similar method but in the absence of water. The phases were viewed using an Olympus GX51 inverted polarising microscope (Olympus Australia Pty. Ltd, Australia) equipped with an Olympus C-5060 digital camera for image capture. All images were taken with 100× magnification unless elsewhere stated. […] The bulk phase of the binary amphiphile/water system was prepared by weighing the appropriate amount of sample and water in a sample vial. For those samples requiring pre-treatment, the samples were quickly melted in a pre-heated temperature controlled silicon-oil heating bath prior to addition of water. […] The prepared samples were analysed using an Anton-Paar SAXSess (Graz, Austria) with PANalytical PW3830 stand-alone X-ray generator operating at 40 kv, 50 mA with a sealed-tube Cu anode (λCu—Kα=0.154 nm). The samples were loaded into a paste cell sample holder at room temperature. […] Temperature control was via a TCU Temperature Control Unit (Anton Paar). […] The scattering results were recorded and analysed by the accompanied Anton Paar software.

[5] = Thermal decomposition by TGA; type: physicochemical; settings: neat prodrug
[6] = porcine liver CES, 37° C., enzyme 0.5 mg/mL for prodrugs
[7] = porcine liver CES, 37° C., enzyme 0.5 mg/mL for prodrugs, 0.005 mg/ml for Capecitabine
[8] = in excess water, RT (25° C.), SAXS
[9] = in excess water with 2.3% F127 and 4.87% Ethanol, SAXS, 37° C.

Row | Specific Activity (SA) at time t = 24 h [2, 6] | Specific Activity (SA) at time t = 1 h [2, 7] [µmol/min/mg] | Specific Activity (SA) at time t = 2 h [2, 7] [µmol/min/mg] | Specific Activity (SA) at time t = 6 h [2, 7] [µmol/min/mg] | mean (average) particle size [3] [nm] | Average Particle size [3] [nm] | Lyotropic phase behaviour [4] | temperature at which decomposition starts (TGA) [5] | Compound | SA relative to 5-FCPal [2] | Specific Activity (SA) at time t = 12 h [2, 6] | tumours from animals sacrificed at 17 days (images) (4T1 tumour; FIG. 19) | particle size distribution [3] | lyotropic phase behaviour in water penetration scans [4] | Lattice parameter ([4]; in excess water, 37° C., SAXS) | Lattice parameter [4, 8] | phase in excess water ([4]; physiological temperatures) | also measured
1 | 1.15 µmol/min/mg | 1.03 | 1.3 | 0.67 | 164 | 219 | Hexosome | 95 °C | 5′-deoxy-5-fluoro-N^4-(3,7,11,15-tetramethyl-hexadecyl-1-oxycarbonyl)cytidine [Prodrug 5-FCPhy] | about 4 times | 0.89 µmol/min/mg | significantly smaller tumours | 100-300 nm | 3D inversed bicontinous cubic phase (Pn3m space group) initially and then transform to 2D hexagonal phase | 5.60 nm | RT: H2(5.82 nm) |  | overall tumour volume at day 21 ([1]; 4T1 tumour, oral daily, day 21): second smallest overall tumour volume; behaviour and appearance of the treated mice ([1]; 4T1 tumour-bearing BALB/c mice, oral daily for 21 days): active and healthy; spleens from animals sacrificed at 17 days (images) (4T1 tumour; mouse, in vivo): normal spleens; Phases ([4]; without water, RT, 37° C., equilibrated): Amorphous
2 |  |  |  |  |  |  |  |  | 5′-deoxy-5-fluoro-N^4-(octadecyl-1-oxycarbonyl)cytidine [Prodrug 5-FCSte] |  |  |  |  |  |  |  | lamellar phases | 
3 | 0.27 µmol/mL | 0.3 | 0.38 | 0.33 | 700 | 661 | Solid lipid | approximately 120 °C | CCCCCCCCCCCCCCCCOC(=O)Nc1nc(=O)n([C@@H]2O[C@H](C)[C@@H](O)[C@H]2O)cc1F [Prodrug 5-FCPal, 5′-deoxy-5-fluoro-N^4-(hexadecyl-1-oxycarbonyl)cytidine] |  |  |  |  | did not swell |  |  |  | time over which hydrolysis continued towards full conversion ([2]; CES 0.5 mg/mL, 37° C.): more than 7 days; Phases ([4]; in excess water, equilibration @ RT 7 Days, RT, 37, 50° C.): Lamellar; d-spacing ([4]; in excess water, equilibration @ RT 7 Days, RT): (2.86 nm); Phases ([4]; without water, RT, 37, 50, 70, 90° C., SAXS confirmed with XRD): Lamellar; d-spacing ([4]; without water, RT): (2.87 nm)
4 |  |  |  |  |  |  |  |  | 5′-deoxy-5-fluoro-N^4-(cis-9,cis-12-octadecenyl-1-oxycarbonyl)cytidine [Prodrug 5-FCLeo] |  |  |  |  |  |  |  | fluid isotropic phase | phase at limited hydration ([4]; limited hydration, physiological temperatures): inverse phases
5 |  | 733 | 717 | 598 |  |  |  |  | CCCCCOC(=O)Nc1nc(=O)n([C@@H]2O[C@H](C)[C@@H](O)[C@H]2O)cc1F [Capecitabine, reference compound] |  |  |  |  |  |  |  |  | time to hydrolysis to 5-FC ([2]; 5 mg/ml and 0.5 mg/ml enzyme concentration): ≤ 30 min; enzyme activities (SA) ([2]; obtained from three enzymatic concentrations): 600-900 μmol/min/mg enzyme; Specific Activity (SA) at time t = 0.5 h [2, 7]: 933 µmol/min/mg

Row | Compound | Specific Activity (SA) at time t = 24 h [2, 6] | Specific Activity (SA) at time t = 1 h [2, 7] [µmol/min/mg] | Specific Activity (SA) at time t = 2 h [2, 7] [µmol/min/mg] | Specific Activity (SA) at time t = 6 h [2, 7] [µmol/min/mg] | mean (average) particle size [3] [nm] | Average Particle size [3] [nm] | Lyotropic phase behaviour [4] | temperature at which decomposition starts (TGA) [5] | SA relative to 5-FCPal [2] | Specific Activity (SA) at time t = 12 h [2, 6] | tumours from animals sacrificed at 17 days (images) (4T1 tumour; FIG. 19) | particle size distribution [3] | lyotropic phase behaviour in water penetration scans [4] | Lattice parameter ([4]; in excess water, 37° C., SAXS) | Lattice parameter [4, 8] | phase in excess water ([4]; physiological temperatures) | also measured
6 | CCCCCCCC/C=C\CCCCCCCCOC(=O)Nc1nc(=O)n(C2OC(C)C(O)C2O)cc1F (stereo not drawn) [Prodrug 5-FCOle, 5′-deoxy-5-fluoro-N^4-(cis-9-octadecenyl-1-oxycarbonyl)cytidine] |  | 4.97 | 3.7 | 2.24 | 255 | 261 | Cubosome | 123 °C | ~10 times | 2.37 | significantly smaller tumours | 150-500 nm | traditional lamellar (L[…]) phase at room temperature and 3D cubic (Pn3m) phase at elevated temperatures above 33 °C | 37 °C Pn3m: 10.40 nm | 25 °C Lα: 6.01 nm |  | average 4T1 tumour volume by day 17 (4T1 tumour; 1.5 mmol for each treatment, daily for 17 days): significantly smaller tumour volumes; spleens from animals sacrificed at 17 days (images) (4T1 tumour; FIG. 19): normal spleens; time for tumours to reach a similar size as the other treatment groups after treatment was stopped (4T1 tumour; treatment stopped on day 17): a full week; Lattice parameter [4, 9]: 37 °C Pn3m: 9.10 nm; Phases [4, 9]: Pn3m; Phases ([4]; in excess water, 37° C., SAXS): 37 °C Pn3m; Phases [4, 8]: RT: Lα; Phases ([4]; neat, SAXS, 25, 37° C.): Smectic; Lattice parameter ([4]; neat, SAXS, 25° C.): 25° C.: 2.99 nm; Lattice parameter ([4]; neat, SAXS, 37° C.): 37° C.: 3.00 nm; Lattice parameter ([4]; neat, XRD, 25° C.): 2.977 nm; Phases ([4]; neat, XRD, 25° C.): Smectic
